Experimental data taken from patent US20220047529A1, “METHODS OF INHIBITION” (University of Canberra, priority 2018, published 2022).

Test system: form-deprivation myopia
Assay: Form-deprivation myopia (FDM) development in chicks with a translucent diffuser; axial length by A-scan ultrasonography
Details: four days; for axial length: diffuser-treated eye
[1] = daily intravitreal injection of 1.5 mM solution
[2] = daily intravitreal injection of 15 mM solution
[3] = daily intravitreal injection of 1.5 mM solution (10 μL), mean±SEM
[4] = daily intravitreal injection of 15 mM solution (10 μL), mean±SEM
[5] = twice daily topical administration of 1.5 mM solution, mean±SEM
[6] = twice daily topical eye drops of 15 mM solution, mean±SEM
[7] = twice daily topical eye drops of 15 mM solution

Protocol: 30 white male cockerel chickens were randomly assigned to one of six treatment groups as defined below (n=5 per group) and were treated for a four day period. • Chicks fitted with a translucent diffuser over their left eye to induce form-deprivation myopia (FDM); • Chicks fitted with a translucent diffuser over their left eye and daily intravitreal injection of a 1.5 mM (0.028%) dopamine solution prepared according to Example 1; • Chicks fitted with a translucent diffuser over their left eye and twice daily topical administration of a 1.5 mM (0.028%) dopamine solution prepared according to Example 1; • Chicks fitted with a translucent diffuser over their left eye and daily intravitreal injection of a 15 mM (0.28%) dopamine solution prepared according to Example 1; • Chicks fitted with a translucent diffuser over their left eye and twice daily topical administration of a 15 mM (0.28%) dopamine solution prepared according to Example 1; • Age-matched untreated control group.
For the drug treatments, the compositions were administered under light isoflurane anesthesia using intravitreal injection or topical administration.
Intravitreal injection was performed as follows: Using a 30 gauge needle attached to a Hamilton syringe, 10 μL (0.01 mL) of the test composition was injected into the vitreous chamber of the eye once daily.
Topical administration was performed as follows: Two drops of 40 μL (two drops of 0.04 mL, or 0.08 mL total) of the test composition was applied to the corneal surface of the eye using an eye drop dispenser. Drops were applied to the chicks twice daily.
To determine changes in the rate of eye growth and the development of myopia, changes in axial length was assessed. […] Axial length, anterior chamber depth and vitreal chamber depth were measured using A-scan ultrasonography (Biometer AL-100; Tomey Corporation, Nagoya, Japan). Statistical analysis of changes in axial length, anterior chamber depth and vitreal chamber depth between groups involved a one-way ANOVA test followed by a Student's T-test with Bonferroni correction. All data are presented as the mean±the standard deviation of the mean (SEM).

| Structure (SMILES) | effect on excessive axial elongation associated with form-deprivation myopia (in words) (daily intravitreal injection of 0.25 mM atropine alone) | axial length (twice daily topical administration of 50 mM atropine solution alone) [mm] | effect on excessive axial elongation associated with form-deprivation myopia (in words) (daily intravitreal injection of 0.15 mM dopamine-1,1,2,2-d4 alone) | protection relative to FDM-only [1] [%] | protection relative to FDM-only [2] [%] | axial length [3] [mm] | axial length [4] [mm] | axial length [5] [mm] | axial length [6] [mm] | protection relative to FDM-only [7] [%] | effect on excessive axial elongation associated with form-deprivation myopia (in words) (daily intravitreal injection of 17 mM pirenzepine alone) |
| --- | --- | --- | --- | --- | --- | --- | --- | --- | --- | --- | --- |
| CN1[C@@H]2CC[C@H]1C[C@@H](OC(=O)C(CO)c1ccccc1)C2 (stereo partly drawn) [atropine] | significantly inhibited | 8.79±0.09 | – | – | – | – | – | – | – | – | – |
| [2H]C([2H])(N)C([2H])([2H])c1ccc(O)c(O)c1 [dopamine-1,1,2,2-d4, 2-(3,4-dihydroxyphenyl)ethyl-1,1,2,2,d4-amine] | – | – | significantly inhibited | 92 | 103 | 8.77±0.11 | 8.72±0.06 | 8.88±0.10 | 8.85±0.14 | 71 | – |
| NCCc1ccc(O)c(O)c1 [dopamine, 2-(3,4-dihydroxyphenyl)ethylamine] | – | – | – | 78 | 78 | 8.82±0.02 | 8.82±0.11 | 8.97±0.08 | 8.84±0.07 | 72 | – |
| CN1CCN(CC(=O)N2c3ccccc3C(=O)Nc3cccnc32)CC1 [pirenzepine] | – | – | – | – | – | – | – | – | – | – | significantly inhibited |
